Data: US8349824B2, “Triazolopyridine compounds” (Hoffmann-La Roche Inc., priority 2010, dated 2013)

Assays:
human PDE10A full length = molecular target: T1, human PDE10A full length (Homo sapiens, UniProt Q9Y233); experiment: PDE10A Scintillation Proximity Assay (SPA), human PDE10A full length assay; type: biochemical; conditions: 50 nM cGMP + 50 nM [3H]-cGMP, 20 minutes at room temperature, read-out: PDE10A inhibition IC50
T1 construct: purchased Enzo Life Science, Lausen, Switzerland SE-534
Method in brief: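 SPA format with full-length enzyme in 20 mM HEPES pH 7.5, 10 mM MgCl2, 0.05 mg/ml BSA, substrate 50 nM cGMP plus 50 nM [3H]-cGMP. Reaction started with substrate, run 20 min at room temperature, stopped with YSi-SPA beads in zinc sulphate. IC50 from scintillation counts over an inhibitor concentration range.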

T1 sequence (Q9Y233 1-779 isoform Q9Y233-1): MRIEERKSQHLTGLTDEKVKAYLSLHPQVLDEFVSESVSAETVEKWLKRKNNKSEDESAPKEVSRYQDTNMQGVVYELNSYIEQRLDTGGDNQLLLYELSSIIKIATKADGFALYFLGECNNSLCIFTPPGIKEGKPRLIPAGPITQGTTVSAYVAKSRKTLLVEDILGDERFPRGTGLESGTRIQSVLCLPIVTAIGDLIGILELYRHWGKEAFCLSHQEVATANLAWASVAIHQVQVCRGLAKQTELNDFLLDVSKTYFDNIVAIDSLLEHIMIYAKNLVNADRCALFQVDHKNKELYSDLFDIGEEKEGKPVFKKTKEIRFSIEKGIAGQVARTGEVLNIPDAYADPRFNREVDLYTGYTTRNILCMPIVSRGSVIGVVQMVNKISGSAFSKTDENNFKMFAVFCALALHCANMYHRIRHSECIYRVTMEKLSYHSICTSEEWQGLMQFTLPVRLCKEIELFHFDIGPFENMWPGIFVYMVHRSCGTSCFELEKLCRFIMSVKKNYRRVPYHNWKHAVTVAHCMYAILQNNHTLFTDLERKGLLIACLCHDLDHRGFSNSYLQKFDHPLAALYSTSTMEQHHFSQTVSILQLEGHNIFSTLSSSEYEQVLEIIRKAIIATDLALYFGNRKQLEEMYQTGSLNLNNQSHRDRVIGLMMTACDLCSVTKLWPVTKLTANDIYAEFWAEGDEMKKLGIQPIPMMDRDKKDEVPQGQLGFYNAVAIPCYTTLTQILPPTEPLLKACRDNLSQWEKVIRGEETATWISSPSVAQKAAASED

IC50 (human PDE10A full length)	melting point	SMILES
4.85 nM	> 250 °C	Cn1ncc(C(=O)N[C@@H]2CCOC2)c1C(=O)Nc1ccn2nc(-c3ccccc3)nc2c1 [Example 15, (R)-1-Methyl-N5-(2-phenyl-[1,2,4]triazolo[1,5-a]pyridin-7-yl)-N4-(tetrahydrofuran-3-yl)-1H-pyrazole-4,5-dicarboxamide]
0.71 nM	243 to 245 °C	Cn1ncc(C(=O)N2CCC2)c1C(=O)Nc1ccn2nc(-c3ccccc3)nc2c1 [Example 3, 4-(Azetidine-1-carbonyl)-2-methyl-2H-pyrazole-3-carboxylic acid (2-phenyl-[1,2,4]triazolo[1,5-a]pyridin-7-yl)-amide]
7.3 nM	242 to 243 °C	CCOC(=O)c1cnn(C)c1C(=O)Nc1ccn2nc(-c3ccccc3)nc2c1 [Example 28, ethyl 1-methyl-5-(2-phenyl-[1,2,4]triazolo[1,5-a]pyridin-7-ylcarbamoyl)-1H-pyrazole-4-carboxylate]
11.8 nM	> 250 °C	Cn1ncc(C(=O)NC2COC2)c1C(=O)Nc1ccn2nc(-c3ccccc3)nc2c1 [Example 17, 1-Methyl-N4-(oxetan-3-yl)-N5-(2-phenyl-[1,2,4]triazolo[1,5-a]pyridin-7-yl)-1H-pyrazole-4,5-dicarboxamide]
0.13 nM	210 to 215 °C	Cn1ncc(C(=O)N2CCCC2)c1C(=O)Nc1ccn2nc(-c3ccccc3)nc2c1 [Example 13, 1-Methyl-N-(2-phenyl-[1,2,4]triazolo[1,5-a]pyridin-7-yl)-4-(pyrrolidine-1-carbonyl)-1H-pyrazole-5-carboxamide]
93.7 nM	217 to 229 °C	CCNC(=O)c1nc2cc(NC(=O)c3c(C(=O)N4CCC4)cnn3C)ccn2n1 [Example 63, 7-{[4-(Azetidine-1-carbonyl)-2-methyl-2H-pyrazole-3-carbonyl]-amino}-[1,2,4]triazolo[1,5-a]pyridine-2-carboxylic acid ethylamide]
1.43 nM	255 to 260 °C	CN(C)C(=O)c1cnn(C)c1C(=O)Nc1ccn2nc(-c3cccc(F)c3)nc2c1 [Example 104, 2-Methyl-2H-pyrazole-3,4-dicarboxylic acid 4-dimethylamide 3-{[2-(3-fluoro-phenyl)[1,2,4]triazolo[1,5-a]pyridin-7-yl]-amide}]
0.86 nM	323.1 °C	CCN(C)C(=O)c1cnn(C)c1C(=O)Nc1ccn2nc(N3CCCC3)nc2c1 [Example 124, 2-Methyl-2H-pyrazole-3,4-dicarboxylic acid 4-(ethyl-methyl-amide)3-[(2-pyrrolidin-1-yl-[1,2,4]triazolo[1,5-a]pyridin-7-yl)-amide]]
28.3 nM	141 to 143 °C	CC(C)c1nc2cc(NC(=O)c3c(C(=O)N4CCCC4)cnn3C)ccn2n1 [Example 34, N-(2-isopropyl-[1,2,4]triazolo[1,5-a]pyridin-7-yl)-1-methyl-4-(pyrrolidine-1-carbonyl)-1H-pyrazole-5-carboxamide]
4.29 nM	218 to 220 °C	Cn1ncc(C(=O)N2CCOCC2)c1C(=O)Nc1ccn2nc(-c3cccnc3)nc2c1 [Example 45, 1-Methyl-4-(morpholine-4-carbonyl)-N-(2-(pyridin-3-yl)-[1,2,4]triazolo[1,5-a]pyridin-7-yl)-1H-pyrazole-5-carboxamide]
57.3 nM	> 300 °C	Cn1ncc(C(=O)N2CC3(COC3)C2)c1C(=O)Nc1ccn2nc(N3CCOCC3)nc2c1 [Example 112, 2-Methyl-4-(2-oxa-6-aza-spiro[3.3]heptane-6-carbonyl)-2H-pyrazole-3-carboxylic acid (2-morpholin-4-yl-[1,2,4]triazolo[1,5-a]pyridin-7-yl)-amide]
0.6 nM	274.3 °C	CN(C(=O)c1cnn(C)c1C(=O)Nc1ccn2nc(N3CCCC3)nc2c1)C1CC1 [Example 123, 2-Methyl-2H-pyrazole-3,4-dicarboxylic acid 4-(cyclopropyl-methyl-amide)3-[(2-pyrrolidin-1-yl-[1,2,4]triazolo[1,5-a]pyridin-7-yl)-amide]]
5.66 nM	233 to 236 °C	CN(CCF)c1nc2cc(NC(=O)c3c(C(=O)N4CC(F)C4)cnn3C)ccn2n1 [Example 114, 4-(3-Fluoro-azetidine-1-carbonyl)-2-methyl-2H-pyrazole-3-carboxylic acid {2-[(2-fluoro-ethyl)-methyl-amino]-[1,2,4]triazolo[1,5-a]pyridin-7-yl}-amide]
20.6 nM	203 to 204 °C	CN(C)C(=O)c1cnn(C)c1C(=O)Nc1ccn2nc(N(C)CCF)nc2c1 [Example 72, 2-Methyl-2H-pyrazole-3,4-dicarboxylic acid 4-dimethylamide 3-({2-[(2-fluoro-ethyl)-methyl-amino]-[1,2,4]triazolo[1,5-a]pyridin-7-yl}-amide)]
11.2 nM	262 to 264 °C	Cc1cncc(-c2nc3cc(NC(=O)c4c(C(=O)N5CCC5)cnn4C)ccn3n2)c1 [Example 68, 4-(Azetidine-1-carbonyl)-2-methyl-2H-pyrazole-3-carboxylic acid [2-(5-methyl-pyridin-3-yl)-[1,2,4]triazolo[1,5-a]pyridin-7-yl]-amide]
11.6 nM	145 to 147 °C	CCN(C)C(=O)c1cnn(C)c1C(=O)Nc1ccn2nc(N(C)CCF)nc2c1 [Example 73, 2-Methyl-2H-pyrazole-3,4-dicarboxylic acid 4-(ethyl-methyl-amide) 3-({2-[(2-fluoro-ethyl)-methyl-amino]-[1,2,4]triazolo[1,5-a]pyridin-7-yl}-amide)]
43.5 nM	196 to 198 °C	CN(C)c1nc2cc(NC(=O)c3c(C(=O)N4CCOCC4)cnn3C)ccn2n1 [Example 36, N-(2-(dimethylamino)-[1,2,4]triazolo[1,5-a]pyridin-7-yl)-1-methyl-4-(morpholine-4-carbonyl)-1H-pyrazole-5-carboxamide]
1.24 nM	247 to 249 °C	Cn1ncc(C(=O)N2CC(F)C2)c1C(=O)Nc1ccn2nc(-c3cccnc3)nc2c1 [Example 47, 4-(3-Fluoroazetidine-1-carbonyl)-1-methyl-N-(2-(pyridin-3-yl)-[1,2,4]triazolo[1,5-a]pyridin-7-yl)-1H-pyrazole-5-carboxamide]
0.25 nM	177 to 179 °C	CCN(CC)C(=O)c1cnn(C)c1C(=O)Nc1ccn2nc(-c3ccccc3)nc2c1 [Example 18, N4,N4-diethyl-1-methyl-N5-(2-phenyl-[1,2,4]triazolo[1,5-a]pyridin-7-yl)-1H-pyrazole-4,5-dicarboxamide]
1.86 nM	148 to 151 °C	CN(CCF)c1nc2cc(NC(=O)c3c(C(=O)N(C)C4CC4)cnn3C)ccn2n1 [Example 74, 2-Methyl-2H-pyrazole-3,4-dicarboxylic acid 4-(cyclopropyl-methyl-amide)3-({2-[(2-fluoro-ethyl)-methyl-amino]-[1,2,4]triazolo[1,5-a]pyridin-7-yl}-amide)]
24.9 nM	> 300 °C	Cn1ncc(C(=O)O)c1C(=O)Nc1ccn2nc(-c3ccccc3)nc2c1 [Example 2, 1-Methyl-5-(2-phenyl-[1,2,4]triazolo[1,5-a]pyridin-7-ylcarbamoyl)-1H-pyrazole-4-carboxylic acid]
2.34 nM	191 to 193 °C	COCCCNC(=O)c1cnn(C)c1C(=O)Nc1ccn2nc(-c3ccccc3)nc2c1 [Example 16, N4-(3-Methoxypropyl)-1-methyl-N5-(2-phenyl-[1,2,4]triazolo[1,5-a]pyridin-7-yl)-1H-pyrazole-4,5-dicarboxamide]
0.94 nM	194 to 197 °C	Cn1ncc(C(=O)N2CCOCC2)c1C(=O)Nc1ccn2nc(N3CCCC3)nc2c1 [Example 61, 2-Methyl-4-(morpholine-4-carbonyl)-2H-pyrazole-3-carboxylic acid (2-pyrrolidin-1-yl-[1,2,4]triazolo[1,5-a]pyridin-7-yl)-amide]
16.3 nM	243 to 245 °C	Cc1c(NC(=O)c2c(C(=O)N3CCC3)cnn2C)ccn2nc(-c3ccccc3)nc12 [Example 9, 4-(Azetidine-1-carbonyl)-1-methyl-N-(8-methyl-2-phenyl-[1,2,4]triazolo[1,5-a]pyridin-7-yl)-1H-pyrazole-5-carboxamide]
